Where “and” joins values, the source holds several entries; their conditions need not be identical. Equal entries are not always repeated. Where two headings read alike, the source gives them in different places.
Assays:
[1] = test system: human osteosarcoma cell line SJSA-1; assay: Inhibition of proliferation of human osteosarcoma cell line SJSA-1 (DAPI staining, In Cell Analyzer); details: Homo sapiens, SJSA-1, 72 h, read-out: IC50 (nM), inhibitory activity on proliferation of human osteosarcoma cell line SJSA-1, SJSA-1, incubated 72 h
MDM2 = biological target: T1, MDM2 (Homo sapiens, UniProt Q00987); assay: Inhibition test of MDM2-P53 (GST-MDM2, Biotin-P53, Anti-GST-Tb, SA-XL665); type: binding
T1 construct: made in house
T1 sequence (Q00987 whole entry): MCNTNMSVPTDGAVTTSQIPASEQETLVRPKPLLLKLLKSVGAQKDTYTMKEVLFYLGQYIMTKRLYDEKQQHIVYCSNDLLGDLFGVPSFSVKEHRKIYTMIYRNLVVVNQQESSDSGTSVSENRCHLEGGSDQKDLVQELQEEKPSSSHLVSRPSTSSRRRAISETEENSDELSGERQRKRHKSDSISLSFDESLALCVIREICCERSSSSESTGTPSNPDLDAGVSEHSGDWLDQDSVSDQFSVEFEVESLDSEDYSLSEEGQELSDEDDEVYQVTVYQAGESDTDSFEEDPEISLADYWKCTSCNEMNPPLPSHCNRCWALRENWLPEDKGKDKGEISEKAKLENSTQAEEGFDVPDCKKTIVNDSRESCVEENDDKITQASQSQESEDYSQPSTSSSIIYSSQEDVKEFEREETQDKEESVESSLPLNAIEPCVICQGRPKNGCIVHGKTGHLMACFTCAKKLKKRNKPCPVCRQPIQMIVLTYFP
Summary of the method: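 Compounds, serially diluted 5-fold (twelve concentrations), were shaken for 90 min at 25° C with a mix of GST-MDM2 (4 nM final), Biotin-P53, anti-GST-Tb and SA-XL665. Buffer: 1×PBS, 0.1% BSA, 5 mM DTT, 1 mM AEBSF; signal read on a microplate reader.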

[2] = Pharmacokinetics in ICR mice after intravenous and intragastric administration; type: in vivo; details: for MRT last: read-out: MRT(0-t); for MRT inf: read-out: MRT(0-∞); for Vd: read-out: Vz
Summary of the method: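 Male ICR mice, fasted overnight, n=3 per route, given 2 mg/kg IV or 5 mg/kg intragastric in 5% DMSO/40% PEG400/55% (10% HP-β-CD in saline). Plasma drug levels measured by LC-MS/MS after protein precipitation (LLOQ 1 ng/mL); noncompartmental AUC, t1/2, MRT, Cmax, Tmax, F, Vz, CL derived.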

[3] = ICR mice, IV 2 mg/kg, individual animal, 2 mg/kg
[4] = ICR mice, PO 5 mg/kg, individual animal, 5 mg/kg
[5] = male, ICR, mouse, plasma, iv, 2 mg/kg, ICR mice, IV 2 mg/kg, individual animal
[6] = male, ICR, mouse, plasma, iv, 2 mg/kg, ICR mice, IV 2 mg/kg, individual animal, read-out: Cmax
[7] = male, ICR, mouse, plasma, iv, 2 mg/kg, ICR mice, IV 2 mg/kg, individual animal, read-out: Tmax
[8] = male, ICR, mouse, plasma, iv, 2 mg/kg, ICR mice, IV 2 mg/kg, individual animal, read-out: t1/2 (converted)
[9] = male, ICR, mouse, plasma, iv, 2 mg/kg, ICR mice, IV 2 mg/kg, mean of 3 animals
[10] = male, ICR, mouse, plasma, iv, 2 mg/kg, ICR mice, IV 2 mg/kg, mean of 3 animals, read-out: AUC(0-t)
[11] = male, ICR, mouse, plasma, iv, 2 mg/kg, ICR mice, IV 2 mg/kg, mean of 3 animals, read-out: Cmax
[12] = male, ICR, mouse, plasma, iv, 2 mg/kg, ICR mice, IV 2 mg/kg, mean of 3 animals, read-out: Tmax
[13] = male, ICR, mouse, plasma, iv, 2 mg/kg, ICR mice, IV 2 mg/kg, mean of 3 animals, read-out: t1/2 (converted)
[14] = male, ICR, mouse, plasma, po, 5 mg/kg, ICR mice, PO 5 mg/kg, individual animal
[15] = male, ICR, mouse, plasma, po, 5 mg/kg, ICR mice, PO 5 mg/kg, individual animal, read-out: Cmax
[16] = male, ICR, mouse, plasma, po, 5 mg/kg, ICR mice, PO 5 mg/kg, individual animal, read-out: Tmax
[17] = male, ICR, mouse, plasma, po, 5 mg/kg, ICR mice, PO 5 mg/kg, individual animal, read-out: t1/2 (converted)
[18] = male, ICR, mouse, plasma, po, 5 mg/kg, ICR mice, PO 5 mg/kg, mean of 3 animals
[19] = male, ICR, mouse, plasma, po, 5 mg/kg, ICR mice, PO 5 mg/kg, mean of 3 animals, read-out: AUC(0-t)
[20] = male, ICR, mouse, plasma, po, 5 mg/kg, ICR mice, PO 5 mg/kg, mean of 3 animals, read-out: Cmax
[21] = male, ICR, mouse, plasma, po, 5 mg/kg, ICR mice, PO 5 mg/kg, mean of 3 animals, read-out: Tmax
[22] = male, ICR, mouse, plasma, po, 5 mg/kg, ICR mice, PO 5 mg/kg, mean of 3 animals, read-out: t1/2 (converted)
[23] = male, ICR, mouse, plasma, po, 5 mg/kg, oral intragastric administration 5 mg/kg, read-out: AUC0-t
[24] = male, ICR, mouse, plasma, po, 5 mg/kg, oral intragastric administration 5 mg/kg, read-out: half-life (converted)
[25] = male, mouse, plasma, ICR mice, PO 5 mg/kg vs IV 2 mg/kg, from mean values, read-out: F* (bioavailability)

Compound: CCOc1cc(OC)c(-c2nc3c(n2C(C)C)[C@@]2(C(=O)Nc4cc(Cl)ccc42)N(c2cc(Cl)ccc2F)C3=O)cn1 [Example S-98, (S)-6-chloro-5′-(5-chloro-2-fluorophenyl)-2′-(6-ethoxy-4-methoxypyridin-3-yl)-3′-isopropyl-3′H-spiro[dihydroindole-3,4′-pyrrolo[3,4-d]imidazole]-2,6′(5′H)-dione]
- IC50 [1]: 56.1 nM
- IC50 (MDM2): 1.27 nM
- AUC(0-t) [2, 3]: 8869.53 ng·h/mL and 11177.15 ng·h/mL
- AUC(0-∞) [2, 3]: 9108.92 ng·h/mL and 12596.27 ng·h/mL
- CL [2, 3]: 3.66 mL/min/kg and 2.65 mL/min/kg
- Cmax [2, 3]: 3789.06 ng/mL and 3405.07 ng/mL
- MRT(0-t) [2, 3]: 1.43 h and 1.82 h
- MRT(0-∞) [2, 3]: 1.60 h and 2.60 h
- Vz [2, 3]: 0.37 L/kg and 0.44 L/kg
- t1/2 [2, 3]: 1.17 h and 1.93 h
- AUC(0-t) [2, 4]: 37288.31 ng·h/mL and 18064.52 ng·h/mL and 23330.62 ng·h/mL
- AUC(0-∞) [2, 4]: 19691.36 ng·h/mL and 23352.18 ng·h/mL
- Cmax [2, 4]: 3420.72 ng/mL and 2943.86 ng/mL
- MRT(0-t) [2, 4]: 3.17 h and 4.72 h
- MRT(0-∞) [2, 4]: 3.82 h and 4.74 h
- Tmax [2, 4]: 2.00 h
- t1/2 [2, 4]: 2.12 h and 2.30 h
- AUC(0-inf) [2, 5]: 10500 ng·h/mL
- clearance [2, 5]: 3.16 mL/min/kg
- AUC(0-t) ([2]; male, ICR, mouse, plasma, iv, 2 mg/kg, ICR mice, IV 2 mg/kg, individual animal, read-out: AUC(0-t)): 10000 ng·h/mL
- Cmax [2, 6]: 3670 ng/mL
- MRT last [2, 5]: 1.55 h
- MRT inf [2, 5]: 1.86 h
- Tmax [2, 7]: 0.08 h
- Vd [2, 5]: 0.39 L/kg
- half-life [2, 8]: 1.43 h
- AUC(0-inf) [2, 9]: 10700 ng·h/mL
- clearance [2, 9]: 3.16 mL/min/kg
- AUC(0-t) [2, 10]: 10000 ng·h/mL
- Cmax [2, 11]: 3620 ng/mL
- MRT last [2, 9]: 1.6 h
- MRT inf [2, 9]: 2.02 h
- Tmax [2, 12]: 0.083 h
- Vd [2, 9]: 0.4 L/kg
- half-life [2, 13]: 1.51 h
- AUC(0-inf) [2, 14]: 37300 ng·h/mL
- Cmax [2, 15]: 3840 ng/mL
- MRT last [2, 14]: 5.36 h
- MRT inf [2, 14]: 5.38 h
- Tmax [2, 16]: 4 h
- half-life [2, 17]: 2.31 h
- AUC(0-inf) [2, 18]: 26800 ng·h/mL
- AUC(0-t) [2, 19]: 26200 ng·h/mL
- Cmax [2, 20]: 3400 ng/mL
- MRT last [2, 18]: 4.41 h
- MRT inf [2, 18]: 4.65 h
- Tmax [2, 21]: 2.67 h
- half-life [2, 22]: 2.24 h
- AUC(0-t) [2, 23]: 26200 ng·h/mL
- half-life [2, 24]: 2.24 h
- bioavailability ([2]; male, ICR, mouse, plasma, oral intragastric administration 5 mg/kg, read-out: bioavailability): 105%
- bioavailability [2, 25]: 105%

Compound: COc1cc(C2CC2)ncc1-c1nc2c(n1C(C)C)[C@@]1(C(=O)Nc3cc(Cl)ccc31)N(c1cc(Cl)ccc1C)C2=O [Example S-103, (S)-6-chloro-5′-(5-chloro-2-methylphenyl)-2′-(6-cyclopropyl-4-methoxypyridin-3-yl)-3′-isopropyl-3′H-spiro[dihydroindole-3,4′-pyrrolo[3,4-d]imidazole]-2,6′(5′H)-dione]
- IC50 [1]: 40.5 nM
- IC50 (MDM2): 1.81 nM
- AUC(0-t) [2, 3]: 10460.62 ng·h/mL and 4009.87 ng·h/mL and 5508.40 ng·h/mL
- AUC(0-∞) [2, 3]: 10483.52 ng·h/mL and 5119.53 ng·h/mL and 8771.81 ng·h/mL
- CL [2, 3]: 3.18 mL/min/kg and 6.51 mL/min/kg and 3.80 mL/min/kg
- Cmax [2, 3]: 1045.99 ng/mL and 1333.49 ng/mL
- MRT(0-t) [2, 3]: 4.16 h and 2.05 h and 2.33 h
- MRT(0-∞) [2, 3]: 3.75 h and 5.91 h
- Vz [2, 3]: 1.53 L/kg and 1.35 L/kg
- t1/2 [2, 3]: 2.71 h and 4.11 h
- AUC(0-t) [2, 4]: 13078.28 ng·h/mL and 19872.62 ng·h/mL
- AUC(0-∞) [2, 4]: 14231.55 ng·h/mL and 19888.79 ng·h/mL
- Cmax [2, 4]: 2344.01 ng/mL and 3008.06 ng/mL
- MRT(0-t) [2, 4]: 3.36 h and 4.45 h
- MRT(0-∞) [2, 4]: 3.93 h and 4.47 h
- Tmax [2, 4]: 4.00 h
- t1/2 [2, 4]: 1.72 h and 2.23 h
- Cmax [2, 6]: 1330 ng/mL
- MRT inf [2, 5]: 4.21 h
- Tmax [2, 7]: 1 h
- Vd [2, 5]: 0.79 L/kg
- half-life [2, 8]: 2.89 h
- AUC(0-inf) [2, 9]: 8120 ng·h/mL
- clearance [2, 9]: 4.5 mL/min/kg
- AUC(0-t) [2, 10]: 6660 ng·h/mL
- Cmax [2, 11]: 1240 ng/mL
- MRT last [2, 9]: 2.85 h
- MRT inf [2, 9]: 4.62 h
- Tmax [2, 12]: 1 h
- Vd [2, 9]: 1.22 L/kg
- half-life [2, 13]: 3.24 h
- AUC(0-inf) [2, 14]: 11700 ng·h/mL
- AUC(0-t) ([2]; male, ICR, mouse, plasma, po, 5 mg/kg, ICR mice, PO 5 mg/kg, individual animal, read-out: AUC(0-t)): 11000 ng·h/mL
- Cmax [2, 15]: 2380 ng/mL
- MRT last [2, 14]: 3.08 h
- MRT inf [2, 14]: 3.54 h
- Tmax [2, 16]: 2 h
- half-life [2, 17]: 1.84 h
- AUC(0-inf) [2, 18]: 15300 ng·h/mL
- AUC(0-t) [2, 19]: 14600 ng·h/mL
- Cmax [2, 20]: 2580 ng/mL
- MRT last [2, 18]: 3.63 h
- MRT inf [2, 18]: 3.98 h
- Tmax [2, 21]: 3.33 h
- half-life [2, 22]: 1.93 h
- AUC(0-t) [2, 23]: 14600 ng·h/mL
- half-life [2, 24]: 1.93 h
- bioavailability [2, 25]: 87.9%

Reference: patent publication US11339171B2, “MDM2 inhibitors” (Gan & Lee Pharmaceuticals, priority 2017, dated 2022)
